Measurements taken from patent publication US20190135747A1, “INDOLE AND INDAZOLE CYANOCINNAMATE COMPOUNDS AND THERAPEUTIC USES THEREOF” (Regents of the University of Minnesota, priority 2016, published 2019).

Legend:
Type in all cases: cell-based
[1] = biological target: T1, MCT4 (Homo sapiens, UniProt O15427); test: MCT lactate inhibition assay, MCT4 in MDA-MB-231; conditions: MDA-MB-231 cells
T1 construct: Cell line MDA-MB-231 (MCT4 expressing human triple negative breast cancer cell line); endogenous in cells; host or cells: MDA-MB-231 human triple negative breast cancer cells
T1 sequence (O15427 2-465 limits assumed): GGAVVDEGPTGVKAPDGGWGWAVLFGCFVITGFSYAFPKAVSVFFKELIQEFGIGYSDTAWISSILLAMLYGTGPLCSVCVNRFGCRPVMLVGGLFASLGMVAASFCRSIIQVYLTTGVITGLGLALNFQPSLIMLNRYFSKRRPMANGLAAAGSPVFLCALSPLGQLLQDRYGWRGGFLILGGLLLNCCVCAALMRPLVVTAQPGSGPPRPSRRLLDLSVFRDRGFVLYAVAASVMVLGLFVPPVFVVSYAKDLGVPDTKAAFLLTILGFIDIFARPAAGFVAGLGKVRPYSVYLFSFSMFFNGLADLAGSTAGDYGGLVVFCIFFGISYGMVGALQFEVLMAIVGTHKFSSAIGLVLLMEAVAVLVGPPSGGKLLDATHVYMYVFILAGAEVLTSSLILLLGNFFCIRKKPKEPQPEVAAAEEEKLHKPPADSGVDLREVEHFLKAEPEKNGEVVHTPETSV
T1 sequence (P35613 140-385 partner limits assumed): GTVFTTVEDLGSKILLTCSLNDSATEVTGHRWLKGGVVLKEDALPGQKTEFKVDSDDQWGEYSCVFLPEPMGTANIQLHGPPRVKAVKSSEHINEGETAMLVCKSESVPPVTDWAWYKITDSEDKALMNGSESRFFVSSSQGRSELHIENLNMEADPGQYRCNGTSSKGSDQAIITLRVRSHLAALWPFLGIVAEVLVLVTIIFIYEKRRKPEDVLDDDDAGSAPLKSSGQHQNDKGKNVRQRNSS
Procedure: (§1) Cell line MDA-MB-231 (MCT4 expressing human triple negative breast cancer cell line), cell line MCF-7 (MCT1 expressing estrogen receptor positive human breast cancer cell line), and cell line 4T1 (MCT1 expressing metastatic murine breast cancer cell line) were used for testing the in vitro cytotoxicity of compounds 1-d, 2, and 3 using the MTT assay available from ThermoFisher Scientific. In addition, Compounds 1-d, 2, and 3 were also evaluated for MCT1 inhibition activity in RBE4 (MCT1 expressing rat brain endothelial 4 cell line) and MCT4 inhibition activity in MDA-MB-231 cell lines by measuring the IC50 values using the MCT lactate inhibition assays (Gurrapu S, Jonnalagadda S K, Alam M A, Nelson G L, Sneve M G, Drewes L R, Venkatram R. Mereddy. Monocarboxylate transporter 1 inhibitors as potential anti-cancer agents. ACS. Med. Chem. Lett., 2015, 6, 558-561.).

[2] = system: 4T1 (MCT1 expressing metastatic murine breast cancer cell line); test: MTT in vitro cytotoxicity assay, 4T1; conditions: Mus musculus, 4T1 cells
Procedure: as §1

[3] = biological target: T2, MCT1 (Rattus norvegicus, UniProt P53987); test: MCT lactate inhibition assay, MCT1 in RBE4; conditions: RBE4 rat brain endothelial cells
T2 construct: endogenous in cells; host or cells: RBE4 rat brain endothelial cells
T2 sequence (P53987 1-494): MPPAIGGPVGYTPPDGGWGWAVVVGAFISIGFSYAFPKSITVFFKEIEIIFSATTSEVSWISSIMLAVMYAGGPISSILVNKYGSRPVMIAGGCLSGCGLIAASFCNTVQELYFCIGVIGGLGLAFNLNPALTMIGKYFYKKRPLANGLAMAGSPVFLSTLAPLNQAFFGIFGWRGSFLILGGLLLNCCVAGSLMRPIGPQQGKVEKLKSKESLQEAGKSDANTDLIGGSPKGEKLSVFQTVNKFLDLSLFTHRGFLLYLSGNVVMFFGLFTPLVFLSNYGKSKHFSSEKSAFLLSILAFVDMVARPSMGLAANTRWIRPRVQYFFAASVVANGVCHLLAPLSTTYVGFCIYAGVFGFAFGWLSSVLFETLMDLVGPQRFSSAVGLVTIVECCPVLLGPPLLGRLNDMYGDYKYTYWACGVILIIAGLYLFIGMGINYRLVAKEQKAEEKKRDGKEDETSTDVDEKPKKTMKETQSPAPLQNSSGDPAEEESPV
T2 sequence (P26453 140-388 partner limits assumed): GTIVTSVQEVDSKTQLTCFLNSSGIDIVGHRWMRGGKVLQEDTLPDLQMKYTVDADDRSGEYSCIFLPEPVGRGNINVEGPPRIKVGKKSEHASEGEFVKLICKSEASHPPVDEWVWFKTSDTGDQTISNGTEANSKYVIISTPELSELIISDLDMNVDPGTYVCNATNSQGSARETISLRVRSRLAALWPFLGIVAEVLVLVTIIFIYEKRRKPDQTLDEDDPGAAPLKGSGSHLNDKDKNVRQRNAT
Procedure: as §1

[4] = system: MDA-MB-231 (MCT4 expressing human triple negative breast cancer cell line); test: MTT in vitro cytotoxicity assay, MDA-MB-231; conditions: MDA-MB-231 cells
Procedure: as §1

[5] = system: MCF-7 (MCT1 expressing estrogen receptor positive human breast cancer cell line); test: MTT in vitro cytotoxicity assay, MCF-7; conditions: MCF7, MCF-7 cells
Procedure: as §1

Row | Structure (SMILES) | IC50 [1] | IC50 [2] | IC50 [3] | IC50 [4] | IC50 [5]
1 | CN(C)c1ccc(-n2cc(/C=C(\C#N)C(=O)O)c3ccccc32)cc1 [Compound 1-d] | 0.02 ± 0.01 µM | 65.4 ± 4.26 µM | 0.07 ± 0.02 µM | > 250 µM | > 250 µM
2 | N#C/C(=C\c1cn(-c2ccc(NC(=O)c3ccc(NC(=O)Nc4ccc(Cl)c(C(F)(F)F)c4)cc3)cc2)c2ccccc12)C(=O)O [Compound 3] | 0.14 ± 0.04 µM | > 250 µM | 0.11 µM | > 250 µM | > 250 µM
3 | N#C/C(=C\c1cn(-c2ccc(NC(=O)Nc3ccc(Cl)c(C(F)(F)F)c3)cc2)c2ccccc12)C(=O)O [Compound 2] | 0.57 ± 0.05 µM | 76.5 ± 4.86 µM | 0.47 ± 0.05 µM | 88.1 ± 17.2 µM | 41.6 ± 20.8 µM
